{"source": "patent US20050038113A1", "about": "“Valproic acid and derivatives for the combinatorial therapeutic treatment of human cancers and for the treatment of tumor metastasis and minimal residual disease” (G2M Cancer Drugs AG, priority 2001, published 2005)", "key": {"Renca-lacZ cells": {"tested_on": "Renca-lacZ cells", "test": "in vivo mouse model of renal carcinoma lung metastasis (X-Gal staining)", "set-up": "species or system Balb/c mice", "conditions": "2×400 mg/kg/day i.p. Na-VPA; Renca-lacZ cells into tail vein; vs glucose solution", "description": "Mouse renal carcinoma cells (Renca) were established from a spontaneously arising kidney tumor in Balb/c mice. These cells efficiently form tumors in the lung upon transplantation into Balb/c mice through the tail vein and the tumorigenic properties of Renca cells have been well established (Murphy, et al., 1973, J. Natl. Cancer Inst., 50: 1013-1025; Hrushesky et al., 1973, J. Surg. Res., 15: 327-332; Williams et al., 1981, Res. Comm. Chem. Pathol. Pharmacol., 34: 345-349). The circulating tumor cells in this model setting represent a mimicry of situations frequently found in tumor patients when residual tumor cells are circulating in a patient's body and finally invade and home in various organs to grow as metastatic tumors. The inhibition of such minimal residual tumor diseases is one of the major aims of modern tumor therapy and can be experimentally examined in the in vivo model used here. Renca cells and the transfected cell clone Renca-lacZ (encoding for β-galactosidase) were grown in RPMI-1640 supplemented with 10% fetal calf serum (FCS). For metastasis formation in recipient mice […] Renca-lacZ cells in 100 μl PBS were injected into the lateral tail vein of female Balb/c mice at 4 to 6 weeks of age. […] Metastatic surface nodules were analyzed under a dissecting microscope and representative pictures were taken and are presented in FIG. 9."}, "[1]": {"tested_on": "HCT-116 colon cancer cells", "test": "cell counts and propidium iodide cell cycle/apoptosis analysis", "type": "cell-based, human", "protocol": "For FIG. 14 cells were seeded in 6 well culture dishes at 100000 cells/well. The day after, they were treated with the indicated drugs (5-FU: 2 μM 5-Fluoruracile; AD: 20 ng/ml adriamycin; IT: 3 μM irinothecan), and then cultured for further 48 hours. Cells were counted at 24 h and 48 h after treatment. All of the assays have been performed in triplicate.\nFor FIG. 15 cells were seeded in 6 well culture dishes at 100000 cells/well. […] (A), results of triplicate counts of viable cells. (B), cells were stained with propidium iodide after permeabilization and fixation. Results of a cell cycle analysis are presented as percentage (%) of cells in G1, S, G2+M, and sub-G1 (apoptotic cells): all of the assays have been performed in triplicate.\n(A), results of triplicate counts of viable cells. (B), cells were stained with propidium iodide after permeabilization and fixation. Results of a cell cycle analysis are presented as percentage (%) of apoptotic cells: all of the assays have been performed in triplicate.\nFor FIG. 17 cells were seeded in 10 cm culture dishes (1 million cells/dish). […] The day after, they were treated with the following drugs: 5-FU (panel A), AD (B), or IT (C), at the concentrations as indicated for FIG. 14. Cells were analyzed at the day of treatment, 24 h, and 48 h following treatment. Upper panels, results of triplicate counts of viable cells. Lower panels, cells were stained with propidium iodide after permeabilization and fixation. Results of a cell cycle analysis are presented as percentage (%) of apoptotic cells: all of the assays have been performed in triplicate."}, "[2]": {"tested_on": "primary AML blasts from AML patients", "test": "ex vivo differentiation, viability and apoptosis of leukemic blasts", "type": "cell-based, human", "conditions": "for myeloid differentiation: M0, M2 and M4 FAB subtypes", "protocol": "Each point represents the mean of a set of data determined in triplicate (Example 15). VPA may cause synergistic therapeutic responses.\nCases were classified according to the French-American-British (FAB) classification (Bennett et al., Ann Intern Med 103, 1985). Cytogenetic analysis and RT-PCR tests were performed to rule out the presence of the APL associated fusion genes according to standard methods as described (Mandelli et al., Blood 90, 1997; Mancini et al., Br J Haematol. 91, 1995; Grimwade et al., Blood 90, 1999)."}}, "data": [{"molecule": "CCCC(CCC)C(=O)O", "note": "[VPA, 2-propylpentanoic acid]", "values": [{"measurement": "formation of lung metastasis (number and size of metastatic nodules)", "setting": "Renca-lacZ cells", "value": "effectively inhibited the formation of lung metastasis"}, {"measurement": "cell growth", "setting": "[1]; 5-FU 2 μM in combination with VPA 1 mM, 72 hours", "value": "strong synergistic reduction in cell growth"}, {"measurement": "apoptosis", "setting": "[1]; 5-FU 2 μM in combination with VPA 1 mM, 72 hours, vs 5-FU alone", "value": "much higher levels of apoptosis"}, {"measurement": "apoptosis", "setting": "[1]; VPA 1 mM pre-treatment three days, then VPA+AD (20 ng/ml) up to 48 hours", "value": "dramatic synergistic enhancement of apoptosis"}, {"measurement": "apoptosis", "setting": "[1]; VPA 1 mM pre-treatment three days, then VPA+FU (2 μM) up to 48 hours", "value": "dramatic synergistic enhancement of apoptosis"}, {"measurement": "apoptosis", "setting": "[1]; VPA 1 mM pre-treatment three days, then VPA+IT (3 μM) up to 48 hours", "value": "dramatic synergistic enhancement of apoptosis"}, {"measurement": "apoptosis", "setting": "[1]; VPA alone, up to one week", "value": "did not induce apoptosis"}, {"measurement": "cell number", "setting": "[1]; VPA alone, up to one week", "value": "only minimally affected cell number"}, {"measurement": "myeloid differentiation", "setting": "[2]; VPA as a single agent", "value": "partial myeloid differentiation"}, {"measurement": "positive cells in the NBT dye reduction assay", "setting": "[2]; VPA in combination with RA", "value": "up to 65%"}, {"measurement": "myeloid differentiation of blasts from primary or relapsed AMLs", "setting": "[2]; VPA in combination with RA, 3 and 2 cases studied", "value": "induced myeloid differentiation"}, {"measurement": "myeloid differentiation", "setting": "[2]; VPA in combination with RA", "value": "complete and thus synergistic myeloid differentiation"}, {"measurement": "induction of apoptosis", "setting": "[2]; combination of VPA plus RA compared to VPA or RA alone", "value": "strongly enhanced, often in a synergistic fashion"}, {"measurement": "apoptosis of AML blasts (FACS, propidium-iodide)", "setting": "[2]; single agent, 4 cases tested", "value": "effective in inducing apoptosis"}]}]}
